Source: patent US20260191863A1, “PYRROLOPYRIMIDINE COMPOSITIONS FOR TREATMENT OF ITK MEDIATED CONDITIONS” (ACLARIS THERAPEUTICS, INC., priority 2022, published 2026)
“And” between values parts separate entries of the source, which are not always exact repeats. Equal entries are not always repeated. Where two headings read alike, the source gives them in different places.

Tests used:
ITK (IL2 mRNA) = assay: SAD ex vivo PD: αCD3/αCD28 stimulated IL2 mRNA production; type: in vivo; conditions: Homo sapiens
Description: (§1) Secondary Endpoints—Compound I plasma concentrations. Mean change from baseline in ex vivo stimulated pSTAT5 and pSTAT1 (signal transducer and activator of transcription); and in ex vivo stimulated IFNγ mRNA (interferon gamma messenger ribonucleic acid).
(§2) Summary of SAD data: FIGS. 4-8 and 9-13 show the SAD dose response, SAD exposure response, and SAD calculated response at Cmax by dose respectively for ITK (IL2 mRNA), ITK (IFNγ mRNA), JAK3 (pSTAT5, lymph), JAK3 (pSTAT5, CD3′ T), and ITK & JAK (IFNγ protein). Clinical and pre-clinical IC50 data for ITK (IL2 mRNA), ITK (IFNγ mRNA), JAK3 (pSTAT5, lymph), JAK3 (pSTAT5, CD3^+ T), and ITK & JAK (IFNγ protein) from the SAD study is shown in table 4.

JAK3 (pSTAT5, CD3+ T) = assay: SAD ex vivo PD: IL2 stimulated pSTAT5 in CD3+ T cells; conditions: Homo sapiens, T-cell; SAD study; read-out: Clinical EC50
Description: as §1, §2

[1] = Phase 1 multiple ascending dose (MAD) study: pharmacokinetics; type: in vivo, human; conditions: for AUC(0-inf): read-out: Geometric Mean AUCINF_obs; for AUC(0-t): read-out: Geometric Mean AUC_0-12; for Tmax: read-out: Geometric Mean Tmax; for AUC: read-out: AUC0-τ
Description: Secondary Endpoints—Compound I plasma concentrations and PK parameters: AUC0-tau, AUC0-inf, Ctrough, Cmax, tmax, Kel, t1/2, CLss/F, Vss/F, Rae.
Overall Design—This was a randomized, Investigator and participant-blind. Sponsor-unblinded, placebo-controlled study designed to evaluate the safety, tolerability, PK, and PD of Compound I in healthy participants. The study consisted of multiple cohorts assessing ascending doses of Compound I.
Approximately 60 participants were enrolled into 5 cohorts. At each dose level/cohort, a total of 10 participants were randomized to receive 2 weeks of oral doses of Compound I (n=8) or placebo (n=2). In Cohort 3, 20 participants were randomized to receive multiple oral doses of Compound I QD (n=8), Compound I TID (n=8), placebo QD (n=2), or placebo TID (n=2).
The study started with a planned dose of 5 mg twice daily (BID). Escalation to the next higher cohort was dependent on safety and PK data from all participants in the previous cohorts and was based on data from at least 6 participants up to at least 48 hours after the last dose. In no instance did the dose escalation steps exceed 3-fold the prior dose level.

[2] = test system: αCD3 & IL15 stimulated IFNγ protein; assay: MAD ex vivo PD: αCD3 & IL15 stimulated IFNγ protein; type: in vivo, human
Description: Exploratory Endpoints—Mean change from baseline in cellular, extracellular (secreted), and/or message markers of inflammation.
EC50 and IC50 data for αCD3 & αCD28 stimulated IL2mRNA, IL15 stimulated IFNγ protein, and αCD3 & IL15 stimulated IFNγ protein is shown in table 9.

experimental colitis = assay: Mouse colitis model vs ritlecitinib and tofacitinib, histological damage; type: in vivo; conditions: proximal/distal colon and ileum
Method: […] experimental colitis data-Histological damage was evaluated for the proximal/distal colon and ileum. Representative data shown here is from the distal colon-across all three regions of GI tissues analyzed.

[3] = human, plasma, oral, 5 mg, Cohort 1, 5 mg BID, Day 1
[4] = human, plasma, oral, 5 mg, Cohort 1, 5 mg BID, Day 7
[5] = human, plasma, oral, 5 mg, Cohort 1, 5 mg BID, Day 15
[6] = human, plasma, oral, 15 mg, Cohort 2, 15 mg BID, Day 1
[7] = human, plasma, oral, 15 mg, Cohort 2, 15 mg BID, Day 7
[8] = human, plasma, oral, 15 mg, Cohort 2, 15 mg BID, Day 15
[9] = human, plasma, oral, 25 mg, Cohort 4, 25 mg BID, Day 1
[10] = human, plasma, oral, 25 mg, Cohort 4, 25 mg BID, Day 7
[11] = human, plasma, oral, 25 mg, Cohort 4, 25 mg BID, Day 15
[12] = human, plasma, oral, 30 mg, Cohort 3a, 30 mg QD, Day 1
[13] = human, plasma, oral, 30 mg, Cohort 3a, 30 mg QD, Day 7
[14] = human, plasma, oral, 30 mg, Cohort 3a, 30 mg QD, Day 15
[15] = human, plasma, oral, 40 mg, Cohort 5, 40 mg BID, Day 1
[16] = human, plasma, oral, 40 mg, Cohort 5, 40 mg BID, Day 7
[17] = human, plasma, oral, 40 mg, Cohort 5, 40 mg BID, Day 15

C=CC(=O)N1C[C@H](Nc2ncnc3[nH]cc([C@H]4CC4(F)F)c23)CC[C@@H]1C [Compound I, 1-((2S,5R)-5-((5-((R)-2,2-difluorocyclopropyl)-7H-pyrrolo[2,3-d]pyrimidin-4-yl)amino)-2-methylpiperidin-1-yl)prop-2-en-1-one]
EC50 (ITK (IL2 mRNA); SAD study, read-out: Clinical EC50): 0.0152 µM | EC50 (ITK (IL2 mRNA); read-out: SAD EC50): 0.0055 µg/mL and 15.2 nM | EC50 (JAK3 (pSTAT5, CD3+ T)): 0.11 µM | Geometric Mean Accumulation Ratio - AUCtau (Day 15/Day 1) ([1]; Cohort 1, 5 mg BID): 1.2 | Geometric Mean Accumulation Ratio - Cmax (Day 15/Day 1) ([1]; Cohort 1, 5 mg BID): 1.2 | Geometric Mean HL_Lambda_z ([1]; Cohort 1, 5 mg BID, Day 1): 1.51 h | Geometric Mean HL_Lambda_z ([1]; Cohort 1, 5 mg BID, Day 7): 1.50 h | Geometric Mean HL_Lambda_z ([1]; Cohort 1, 5 mg BID, Day 15): 1.65 h | Geometric Mean Accumulation Ratio - AUCtau (Day 15/Day 1) ([1]; Cohort 2, 15 mg BID): 1.6 | Geometric Mean Accumulation Ratio - Cmax (Day 15/Day 1) ([1]; Cohort 2, 15 mg BID): 1.4 | Geometric Mean HL_Lambda_z ([1]; Cohort 2, 15 mg BID, Day 1): 1.53 h | Geometric Mean HL_Lambda_z ([1]; Cohort 2, 15 mg BID, Day 7): 1.66 h | Geometric Mean HL_Lambda_z ([1]; Cohort 2, 15 mg BID, Day 15): 1.65 h | Geometric Mean Accumulation Ratio - AUCtau (Day 15/Day 1) ([1]; Cohort 3a, 30 mg QD): 1.3 | Geometric Mean Accumulation Ratio - Cmax (Day 15/Day 1) ([1]; Cohort 3a, 30 mg QD): 1.1 | Geometric Mean HL_Lambda_z ([1]; Cohort 3a, 30 mg QD, Day 1): 1.90 h | Geometric Mean HL_Lambda_z ([1]; Cohort 3a, 30 mg QD, Day 7): 1.87 h | Geometric Mean HL_Lambda_z ([1]; Cohort 3a, 30 mg QD, Day 15): 1.93 h | Geometric Mean Accumulation Ratio - AUCtau (Day 15/Day 1) ([1]; Cohort 4, 25 mg BID): 1.4 | Geometric Mean Accumulation Ratio - Cmax (Day 15/Day 1) ([1]; Cohort 4, 25 mg BID): 1.3 | Geometric Mean HL_Lambda_z ([1]; Cohort 4, 25 mg BID, Day 1): 1.70 h | Geometric Mean HL_Lambda_z ([1]; Cohort 4, 25 mg BID, Day 7): 1.91 h | Geometric Mean HL_Lambda_z ([1]; Cohort 4, 25 mg BID, Day 15): 1.97 h | Geometric Mean Accumulation Ratio - AUCtau (Day 15/Day 1) ([1]; Cohort 5, 40 mg BID): 1.7 | Geometric Mean Accumulation Ratio - Cmax (Day 15/Day 1) ([1]; Cohort 5, 40 mg BID): 1.4 | Geometric Mean HL_Lambda_z ([1]; Cohort 5, 40 mg BID, Day 1): 1.78 h | Geometric Mean HL_Lambda_z ([1]; Cohort 5, 40 mg BID, Day 7): 1.85 h | Geometric Mean HL_Lambda_z ([1]; Cohort 5, 40 mg BID, Day 15): 2.34 h | Dose proportionality of geometric mean exposure (Cmax and AUC) ([1]; MAD): increases slightly greater than dose-proportional | Plasma concentration dose dependence ([1]; MAD): increased in a dose-dependent manner | Time to peak plasma concentration after dosing ([1]; MAD): ≤ 2 h | AUC(0-inf) [1, 3]: 27 ng·h/mL | AUC(0-t) [1, 3]: 26 ng·h/mL | Cmax ([1]; human, plasma, oral, 5 mg, Cohort 1, 5 mg BID, Day 1, read-out: Geometric Mean Cmax): 10.8 ng/mL | Tmax [1, 3]: 36 min | AUC(0-inf) [1, 4]: 32 ng·h/mL | AUC(0-t) [1, 4]: 32 ng·h/mL | Cmax ([1]; human, plasma, oral, 5 mg, Cohort 1, 5 mg BID, Day 7, read-out: Geometric Mean Cmax): 13 ng/mL | Tmax [1, 4]: 46.2 min | AUC(0-inf) [1, 5]: 32 ng·h/mL | AUC(0-t) [1, 5]: 32 ng·h/mL | Cmax ([1]; human, plasma, oral, 5 mg, Cohort 1, 5 mg BID, Day 15, read-out: Geometric Mean Cmax): 12.5 ng/mL | Tmax [1, 5]: 46.2 min | AUC(0-inf) [1, 6]: 71 ng·h/mL | AUC(0-t) [1, 6]: 71 ng·h/mL | Cmax ([1]; human, plasma, oral, 15 mg, Cohort 2, 15 mg BID, Day 1, read-out: Geometric Mean Cmax): 28.8 ng/mL | Tmax [1, 6]: 48.6 min | AUC(0-inf) [1, 7]: 110 ng·h/mL | AUC(0-t) [1, 7]: 109 ng·h/mL | Cmax ([1]; human, plasma, oral, 15 mg, Cohort 2, 15 mg BID, Day 7, read-out: Geometric Mean Cmax): 42.5 ng/mL | Tmax [1, 7]: 46.2 min | AUC(0-inf) [1, 8]: 111 ng·h/mL | AUC(0-t) [1, 8]: 110 ng·h/mL | Cmax ([1]; human, plasma, oral, 15 mg, Cohort 2, 15 mg BID, Day 15, read-out: Geometric Mean Cmax): 38.9 ng/mL | Tmax [1, 8]: 57.6 min | Cmax ([1]; human, plasma, oral, 15 mg, Human 15 mg, read-out: Cmax): 38.9 ng/mL | AUC(0-inf) [1, 9]: 175 ng·h/mL | AUC(0-t) [1, 9]: 173 ng·h/mL | Cmax ([1]; human, plasma, oral, 25 mg, Cohort 4, 25 mg BID, Day 1, read-out: Geometric Mean Cmax): 64.3 ng/mL | Tmax [1, 9]: 50.4 min | AUC(0-inf) [1, 10]: 265 ng·h/mL | AUC(0-t) [1, 10]: 260 ng·h/mL | Cmax ([1]; human, plasma, oral, 25 mg, Cohort 4, 25 mg BID, Day 7, read-out: Geometric Mean Cmax): 89.6 ng/mL | Tmax [1, 10]: 48.6 min | AUC(0-inf) [1, 11]: 245 ng·h/mL | AUC(0-t) [1, 11]: 240 ng·h/mL | Cmax ([1]; human, plasma, oral, 25 mg, Cohort 4, 25 mg BID, Day 15, read-out: Geometric Mean Cmax): 81.8 ng/mL | Tmax [1, 11]: 42.6 min | Cmax ([1]; human, plasma, oral, 25 mg, Human 25 mg, read-out: Cmax): 81.8 ng/mL | AUC(0-inf) [1, 12]: 312 ng·h/mL | AUC(0-t) [1, 12]: 308 ng·h/mL | Cmax ([1]; human, plasma, oral, 30 mg, Cohort 3a, 30 mg QD, Day 1, read-out: Geometric Mean Cmax): 104 ng/mL | Tmax [1, 12]: 40.8 min | AUC(0-inf) [1, 13]: 375 ng·h/mL | AUC(0-t) [1, 13]: 366 ng·h/mL | Cmax ([1]; human, plasma, oral, 30 mg, Cohort 3a, 30 mg QD, Day 7, read-out: Geometric Mean Cmax): 124 ng/mL | Tmax [1, 13]: 52.2 min | AUC(0-inf) [1, 14]: 400 ng·h/mL | AUC(0-t) [1, 14]: 392 ng·h/mL | Cmax ([1]; human, plasma, oral, 30 mg, Cohort 3a, 30 mg QD, Day 15, read-out: Geometric Mean Cmax): 119 ng/mL | Tmax [1, 14]: 57.6 min | Cmax ([1]; human, plasma, oral, 30 mg, Human 30 mg, read-out: Cmax): 119 ng/mL | AUC(0-inf) [1, 15]: 288 ng·h/mL | AUC(0-t) [1, 15]: 285 ng·h/mL | Cmax ([1]; human, plasma, oral, 40 mg, Cohort 5, 40 mg BID, Day 1, read-out: Geometric Mean Cmax): 102 ng/mL | Tmax [1, 15]: 50.4 min | AUC(0-inf) [1, 16]: 487 ng·h/mL | AUC(0-t) [1, 16]: 480 ng·h/mL | Cmax ([1]; human, plasma, oral, 40 mg, Cohort 5, 40 mg BID, Day 7, read-out: Geometric Mean Cmax): 158 ng/mL | Tmax [1, 16]: 55.2 min | AUC(0-inf) [1, 17]: 484 ng·h/mL | AUC(0-t) [1, 17]: 472 ng·h/mL | Cmax ([1]; human, plasma, oral, 40 mg, Cohort 5, 40 mg BID, Day 15, read-out: Geometric Mean Cmax): 138 ng/mL | Tmax [1, 17]: 63 min | concentration at 6 h ([1]; human, plasma, oral, 15 mg BID, steady-state, 6 hours post-dose): 4.3 ng/mL | concentration at 8 h ([1]; human, plasma, oral, 25 mg BID, steady-state, 8 hours post-dose): 5.7 ng/mL | concentration at 11.5 h ([1]; human, plasma, oral, 30 mg QD, steady-state, 11.5 hours post-dose): ~4 ng/mL | AUC ([1]; plasma, oral, Human 15 mg): 110 ng·h/mL | AUC ([1]; plasma, oral, Human 25 mg): 240 ng·h/mL | AUC ([1]; plasma, oral, Human 30 mg): 392 ng·h/mL | EC50 ([2]; Homo sapiens, read-out: MAD EC50): 0.0041 µg/mL and 11.4 nM | EC50 ([2]; human whole blood dual stimulation, read-out: Human Compound I Cp to reach HWB dual stim EC50 (MAD PD data)): ≥ 3.47 ng/mL | Protection from histological damage vs comparator drugs (experimental colitis): more protective than both comparator drugs
